Test results from the OPERA property sets (Mansouri et al. 2018).
Values after ≈ are worked out from the molar mass of the structure shown.

conditions: 20 °C

Question: For `CC(=O)N(O)CCCCCNC(=O)CCC(=O)N(O)CCCCCNC(=O)CCC(=O)N(O)CCCCCN`, which solubility is on record?
Answer: 21.4 mM (≈ 12000 µg/mL)

Question: For `CC(=O)N(C)N(C(=O)C(=O)N(C)C)c1ccccc1`, which solubility is on record?
Answer: 292 mM (≈ 76900 µg/mL)

Question: Which solubility does the source give for `CCCOc1ccc([N+](=O)[O-])cc1N` here?
Answer: 0.693 mM (≈ 136 µg/mL)

Question: With `CC(C)(C)C(O)C(Oc1ccc(Cl)cc1)n1cncn1` (stereo unspecified) as the compound, how does the solubility read?
Answer: 0.406 mM (≈ 120 µg/mL)

Question: For `CCSc1nnc(C(C)(C)C)c(=O)n1N`, which solubility is on record?
Answer: 1.84 mM (≈ 420 µg/mL)

same assay, conditions: 22 °C

Question: With `O=C(OCCOCCO)c1ccccc1Nc1cccc(C(F)(F)F)c1` as the compound, how does the solubility read?
Answer: 0.00433 mM (≈ 1.6 µg/mL)

Question: With `Nc1nc(N)nc(-c2ccccc2)n1` as the compound, how does the solubility read?
Answer: 3.2 mM (≈ 600 µg/mL)

same assay, conditions: 23 °C

Question: Which solubility does the source give for `COc1cc([C@@H]2c3cc4c(c(O)c3C[C@H]3COC(=O)[C@@H]32)OCO4)cc(OC)c1OC` here?
Answer: 0.0314 mM (≈ 13 µg/mL)

same assay, conditions: 25 °C

Question: For `O=C1OC(CN2CCOCC2)CN1N=Cc1ccc([N+](=O)[O-])o1` (stereo unspecified), which solubility is on record?
Answer: 2.31 mM (≈ 750 µg/mL)

Question: With `CN1CCN(C(c2ccccc2)c2ccccc2)CC1` as the compound, how does the solubility read?
Answer: < 3.75 mM

Question: With `S=P(N1CC1)(N1CC1)N1CC1` as the compound, how does the solubility read?
Answer: 1000 mM (≈ 190000 µg/mL)

Question: For `COc1cc([C@@H]2c3cc4c(cc3[C@H](O)[C@H]3COC(=O)[C@@H]23)OCO4)cc(OC)c1OC`, which solubility is on record?
Answer: 0.241 mM (≈ 100 µg/mL)

Question: With `Cn1c(=O)c2c(ncn2CC(O)CO)n(C)c1=O` (stereo unspecified) as the compound, how does the solubility read?
Answer: 1310 mM (≈ 333000 µg/mL)

Question: Which solubility does the source give for `O=C(c1ccc(F)cc1)C1CCN(CCn2c(=O)[nH]c3ccccc3c2=O)CC1` here?
Answer: 0.0253 mM (≈ 10 µg/mL)

Question: For `NC(=S)Nc1cccc2ccccc12`, which solubility is on record?
Answer: 2.97 mM (≈ 600 µg/mL)

Question: With `CO[C@H]1[C@H](O)[C@H](O[C@H]2CC[C@@]3(C=O)[C@H](CC[C@@H]4[C@@H]3CC[C@]3(C)[C@@H](C5=CC(=O)OC5)CC[C@]43O)C2)O[C@@H](C)[C@@H]1O` as the compound, how does the solubility read?
Answer: 0.729 mM (≈ 400 µg/mL)

Question: With `O=C1CCC(=O)N1Cl` as the compound, how does the solubility read?
Answer: 107 mM (≈ 14300 µg/mL)

Question: With `C=C(C)C(=O)C(=CC(=O)O)OC` as the compound, how does the solubility read?
Answer: 118 mM (≈ 20000 µg/mL)

Question: For `OCc1cc(Br)ccc1O`, which solubility is on record?
Answer: 621 mM (≈ 126000 µg/mL)

Question: For `CC(=O)OC(C)(C)C`, which solubility is on record?
Answer: 71.7 mM (≈ 8330 µg/mL)

Question: Which solubility does the source give for `CC1(C)CC(=O)CC(=O)C1` here?
Answer: 29.7 mM (≈ 4160 µg/mL)

Question: Which solubility does the source give for `O=C(C(=O)c1cc([N+](=O)[O-])ccc1O)c1cc([N+](=O)[O-])ccc1O` here?
Answer: 0.301 mM (≈ 100 µg/mL)

Question: With `CC(=O)Nc1c(I)c(C(=O)N[C@H]2C(O)O[C@H](CO)[C@@H](O)[C@@H]2O)c(I)c(N(C)C(C)=O)c1I` (stereo partly specified) as the compound, how does the solubility read?
Answer: 634 mM (≈ 500000 µg/mL)

Question: With `NC(=O)c1cnccn1` as the compound, how does the solubility read?
Answer: 122 mM (≈ 15000 µg/mL)

Question: With `C[C@](N)(Cc1ccc(O)c(O)c1)C(=O)O` as the compound, how does the solubility read?
Answer: 47.3 mM (≈ 10000 µg/mL)

Question: With `C/C=C\C(=O)OC1C[C@H]2O[C@@H]3C=C(C)C(=O)C[C@]3(C)[C@]1(C)C21CO1` (stereo partly specified) as the compound, how does the solubility read?
Answer: 1.2 mM (≈ 400 µg/mL)

Question: With `CNC[C@H](O)[C@@H](O)[C@H](O)[C@H](O)CO` as the compound, how does the solubility read?
Answer: 3620 mM (≈ 707000 µg/mL)

Question: Which solubility does the source give for `CCCC(C)(COC(N)=O)COC(=O)NC(C)C` (stereo unspecified) here?
Answer: 1.15 mM (≈ 300 µg/mL)

Question: For `O=C(O)[C@H](O)[C@@H](O)[C@H](O)[C@H](O)CO`, which solubility is on record?
Answer: 1610 mM (≈ 316000 µg/mL)

Question: Which solubility does the source give for `C#CC1(OC(N)=O)CCCCC1` here?
Answer: 15 mM (≈ 2500 µg/mL)

Question: With `O=C1C(Br)=CC(=NCl)C=C1Br` as the compound, how does the solubility read?
Answer: 0.196 mM (≈ 58.8 µg/mL)

Question: For `NS(=O)(=O)c1cc2c(cc1C(F)(F)F)NC=NS2(=O)=O`, which solubility is on record?
Answer: 152 mM (≈ 50000 µg/mL)

Question: For `CCCOC(=O)c1cc(O)c(O)c(O)c1`, which solubility is on record?
Answer: 16.5 mM (≈ 3500 µg/mL)

Question: Which solubility does the source give for `O=C1CN=C(c2ccccc2Cl)c2cc([N+](=O)[O-])ccc2N1` here?
Answer: 0.317 mM (≈ 100 µg/mL)

Question: With `O=C(OC(=O)c1ccccc1)c1ccccc1` as the compound, how does the solubility read?
Answer: 0.0442 mM (≈ 10 µg/mL)

Question: Which solubility does the source give for `CCCn1cnc2c1c(=O)n(CCCCC(C)=O)c(=O)n2C` here?
Answer: 104 mM (≈ 32000 µg/mL)

Question: For `O=CNc1ccccc1`, which solubility is on record?
Answer: 210 mM (≈ 25400 µg/mL)

Question: Which solubility does the source give for `CO[C@H]1O[C@H](CNC(=O)N(CCCl)N=O)[C@@H](O)[C@H](O)[C@H]1O` here?
Answer: 27.5 mM (≈ 9000 µg/mL)

Question: Which solubility does the source give for `Cn1c([N+](=O)[O-])cnc1COC(N)=O` here?
Answer: 14.3 mM (≈ 2870 µg/mL)

Question: Which solubility does the source give for `C[C@@H]1C(=O)OC[C@H]2[C@@H]1CC[C@@H]2C` here?
Answer: 11.9 mM (≈ 2000 µg/mL)

Question: Which solubility does the source give for `C[C@H]1O[C@H](O[C@H]2CC[C@H](n3ccc(NC(=O)c4ccc(NC(=O)[C@@](C)(N)CO)cc4)nc3=O)O[C@@H]2C)[C@H](O)[C@@H](O)[C@@H]1N(C)C` here?
Answer: 3.23 mM (≈ 2000 µg/mL)

Question: Which solubility does the source give for `Oc1c(Cl)cc(Cl)cc1Sc1cc(Cl)cc(Cl)c1O` here?
Answer: 0.0112 mM (≈ 4 µg/mL)

Question: Which solubility does the source give for `NC(=O)c1cccnc1` here?
Answer: 4090 mM (≈ 500000 µg/mL)

Question: With `O=C(CCCN1CCC(O)(c2ccc(Cl)cc2)CC1)c1ccc(F)cc1` as the compound, how does the solubility read?
Answer: 0.0372 mM (≈ 14 µg/mL)

Question: For `NC(Cc1cc(Br)c(O)c(Br)c1)C(=O)O` (stereo in doubt), which solubility is on record?
Answer: 11.8 mM (≈ 4000 µg/mL)

Question: For `C=C(C)Cn1c(N)cc(=O)n(C)c1=O`, which solubility is on record?
Answer: 102 mM (≈ 20000 µg/mL)

Question: Which solubility does the source give for `O=[N+]([O-])c1ccc(C=NO)o1` here?
Answer: 6.41 mM (≈ 1000 µg/mL)

Question: With `Cc1cc(O)c(C(C)C)cc1Cl` as the compound, how does the solubility read?
Answer: 5.42 mM (≈ 1000 µg/mL)

Question: Which solubility does the source give for `NC1(C(=O)O)CCCC1` here?
Answer: 387 mM (≈ 50000 µg/mL)

Question: Which solubility does the source give for `Nc1ncnc2c1ncn2[C@]1(CO)O[C@H](CO)[C@@H](O)[C@H]1O` here?
Answer: 26.9 mM (≈ 8000 µg/mL)

Question: Which solubility does the source give for `CCC(O)(COC(N)=O)c1ccccc1` (stereo unspecified) here?
Answer: 119 mM (≈ 25000 µg/mL)

Question: With `O=c1[nH]c(=O)n([C@H]2C[C@H](O)[C@@H](CO)O2)cc1I` as the compound, how does the solubility read?
Answer: 5.65 mM (≈ 2000 µg/mL)

Question: For `CN1C(=O)CCS(=O)(=O)C1c1ccc(Cl)cc1` (stereo unspecified), which solubility is on record?
Answer: 9.13 mM (≈ 2500 µg/mL)

same assay, conditions: 26 °C

Question: For `O=C(O)CCSCCC(=O)O`, which solubility is on record?
Answer: 209 mM (≈ 37200 µg/mL)

same assay, conditions: 27 °C

Question: With `O=C(O)/C=C\C(=O)Nc1ccccc1` as the compound, how does the solubility read?
Answer: 5.23 mM (≈ 1000 µg/mL)

Question: Which solubility does the source give for `NC(=S)NC(N)=S` here?
Answer: 20 mM (≈ 2700 µg/mL)

same assay, conditions: 28 °C

Question: For `Nc1ccc(S(=O)(=O)c2cnc(N)s2)cc1`, which solubility is on record?
Answer: 1.57 mM (≈ 400 µg/mL)

same assay, conditions: 29 °C

Question: With `NC(Cc1n[nH]c2ccccc12)C(=O)O` (stereo unspecified) as the compound, how does the solubility read?
Answer: 39 mM (≈ 8000 µg/mL)

same assay, conditions: 30 °C

Question: Which solubility does the source give for `Nc1ccc(S(=O)(=O)NC(=O)c2ccccc2)cc1` here?
Answer: 1.12 mM (≈ 310 µg/mL)

Question: For `COCCOc1c(OC)cc(Cc2cnc(N)nc2N)cc1OC`, which solubility is on record?
Answer: 7.93 mM (≈ 2650 µg/mL)

same assay, conditions: pH 5.5

Question: For `Cc1cnc(NS(=O)(=O)c2ccc(N)cc2)nc1`, which solubility is on record?
Answer: 1.51 mM (≈ 400 µg/mL)
